Molecular target: T1, Cathepsin K (Homo sapiens, UniProt P43235)
T1 sequence (P43235 115-329): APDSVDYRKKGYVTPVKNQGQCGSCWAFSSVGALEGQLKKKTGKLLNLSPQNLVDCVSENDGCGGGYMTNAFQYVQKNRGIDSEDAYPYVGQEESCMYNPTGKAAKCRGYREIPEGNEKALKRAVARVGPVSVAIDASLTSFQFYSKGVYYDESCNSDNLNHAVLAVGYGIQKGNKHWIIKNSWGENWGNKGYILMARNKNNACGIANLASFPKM
Assay: Measurement of cathepsin K inhibitory activity
Type: biochemical
Details: Dixon plot, pH 5.5, 37° C.
Procedure: (i) Measurement of Cathepsin K Inhibitory Activity
65 μL of Cathepsin K enzyme reaction buffer (50 mmol/L of 2-(N-morpholino)ethanesulfonate, 2 mmol/L of ethylene diamine tetraacetate (EDTA) and 4 mmol/L of dithio threitol (DTT) were mixed to adjust to pH 5.5), 5 μL of cysteine protease inhibitor solution of several concentrations, 20 μL of synthesized substrate (t-butyloxycarbonyl-L-alanyl-glycyl-L-prolyl-L-arginine-4-methyl-chromanyl-7-amide) solution of several concentrations and 10 μL of cathepsin K enzyme solution were mixed and the increase of fluorescence intensity when reacted at 37° C. was measured (Ex (excitation wavelength)=355 nm, Em (fluorescence wavelength)=460 nm). As to the substrate and the compound of the present invention, enzyme reactions were carried out in combination of several appropriate concentrations and Dixon plotting was prepared, to define the absolute value of X-coordinate of the intersection point of the graph as Ki value.

CC(C)CC(NC(=O)C1CCCCCC1)C(=O)c1nnc(SCCN(C)C)o1 (stereo not shown) [example 1]
Ki: 48 nM

— US20040204368A1, “Oxadiazole derivative compounds and drugs containing these compounds as the active ingredient” (priority 2001, published 2004)
